Experiment: in vitro
Settings: human, hek293t cells
Method: Mammalian cytotoxicity measurement was performed using Cell Titer-Glo 2.0 Cell Viability Assay (Promega, G9243) according to the manufacturer protocol. In brief, mammalian cells were seeded into 384-well white plates (Greiner, 781080) and incubated at 37°C for one day. Compounds from the Cys-Library were dispensed into the assay plate using epMotion 96. The plates were then incubated at 37°C for two days. An equal volume of Cell Titer-Glo 2.0 reagent was added into each well of the assay plate using epMotion 96 and incubated at 22°C for 10 min, followed by luminescence measurement using a Cytation 5 plate reader (BioTek).
With `C=CC(=O)NC1CC2CCC(C1)N2S(C)(=O)=O` (stereo not drawn) [2-A18, N-{8-methanesulfonyl-8-azabicyclo[3.2.1]octan-3-yl}prop-2-enamide] the viability at 48 h, 25 µM was 93.8%.
`C=CC(=O)NCc1nc(C2CC2)cs1` [2-A19, N-[(4-cyclopropyl-1,3-thiazol-2-yl)methyl]prop-2-enamide] showed a viability at 48 h, 25 µM of 103%.
Compound `C=CC(=O)N1CCC(n2ccc(C)n2)CC1` [2-A21, 1-[4-(3-methyl-1H-pyrazol-1-yl)piperidin-1-yl]prop-2-en-1-one] has a viability at 48 h, 25 µM of 139%.
In the case of `C=CC(=O)N(c1cc(C)ccc1C#N)C(C)C` [2-A22, N-(2-cyano-5-methylphenyl)-N-(propan-2-yl)prop-2-enamide], the viability at 48 h, 25 µM is reported as 111%.
Work on `C=CC(=O)NCc1ccc(-n2ccc(C3CC3)n2)cc1` [2-B03, N-{[4-(3-cyclopropyl-1H-pyrazol-1-yl)phenyl]methyl}prop-2-enamide] yielded a viability at 48 h, 25 µM of 85.9%.
In the case of `C=CC(=O)N1CCC(C(=O)NCCC2(O)CCCOC2)CC1` (stereo not drawn) [2-B04, N-[2-(3-hydroxyoxan-3-yl)ethyl]-1-(prop-2-enoyl)piperidine-4-carboxamide], the viability at 48 h, 25 µM is reported as 70%.
Compound `C=CC(=O)NCC1CCN(C)C1=O` (stereo not drawn) [2-B05, N-[(1-methyl-2-oxopyrrolidin-3-yl)methyl]prop-2-enamide] has a viability at 48 h, 25 µM of 71.1%.
Compound `C=CC(=O)N1CCC(C(=O)N2CCC(c3ncco3)CC2)CC1` [2-B06, 1-{4-[4-(1,3-oxazol-2-yl)piperidine-1-carbonyl]piperidin-1-yl}prop-2-en-1-one] has a viability at 48 h, 25 µM of 78.3%.
For `C=CC(=O)N(C1CCCC1)C(C)c1nnc2ccccn12` (stereo not drawn) [2-B07, N-cyclopentyl-N-(1-{[1,2,4]triazolo[4,3-a]pyridin-3-yl}ethyl)prop-2-enamide], the viability at 48 h, 25 µM was 51.9%.
`C=CC(=O)N1CCC(C(=O)N2CCN(CC(C)C)C(=O)C2C)CC1` (stereo not drawn) [2-B08, 3-methyl-1-(2-methylpropyl)-4-[1-(prop-2-enoyl)piperidine-4-carbonyl]piperazin-2-one] gave a viability at 48 h, 25 µM of 83.8%.
For `C=CC(=O)NCC(=C)c1ccccc1` [2-B09, N-(2-phenylprop-2-en-1-yl)prop-2-enamide], the viability at 48 h, 25 µM was 57%.
For `C=CC(=O)N1CCC(C(=O)NC(C)(c2noc(C)n2)C2CC2)CC1` (stereo not drawn) [2-B10, N-[1-cyclopropyl-1-(5-methyl-1,2,4-oxadiazol-3-yl)ethyl]-1-(prop-2-enoyl)piperidine-4-carboxamide], the viability at 48 h, 25 µM was 79.8%.
For `C=CC(=O)NCCC(=O)N1CCC(O)(c2c(F)cccc2F)CC1` [2-B11, N-{3-[4-(2,6-difluorophenyl)-4-hydroxypiperidin-1-yl]-3-oxopropyl}prop-2-enamide], the viability at 48 h, 25 µM was 60%.
Compound `C=CC(=O)N1CCC(C(=O)NC2CCOC3(CCSCC3)C2)CC1` (stereo not drawn) [2-B12, N-{1-oxa-9-thiaspiro[5.5]undecan-4-yl}-1-(prop-2-enoyl)piperidine-4-carboxamide] has a viability at 48 h, 25 µM of 97.1%.
`C=CC(=O)NCCc1ccc(S(N)(=O)=O)cc1` [2-B13, N-[2-(4-sulfamoylphenyl)ethyl]prop-2-enamide] gave a viability at 48 h, 25 µM of 77.8%.
In the case of `C=CC(=O)N(C)CC(=O)NCc1nc2cc(C)ccc2n1C` [2-B14, N-({[(1,5-dimethyl-1H-1,3-benzodiazol-2-yl)methyl]carbamoyl}methyl)-N-methylprop-2-enamide], the viability at 48 h, 25 µM is reported as 37.9%.
`C=CC(=O)NCC1CCCc2nccn21` (stereo not drawn) [2-B15, N-({5H,6H,7H,8H-imidazo[1,2-a]pyridin-5-yl}methyl)prop-2-enamide] showed a viability at 48 h, 25 µM of 76.8%.
`C=CC(=O)N1CCC(C(=O)N[C@@H](C)C(=O)NC)(c2ccccc2)CC1` [2-B16, (2S)-N-methyl-2-{[4-phenyl-1-(prop-2-enoyl)piperidin-4-yl]formamido}propanamide] gave a viability at 48 h, 25 µM of 87%.
For `C=CC(=O)NCc1ccnc(OC2CCOCC2)c1` [2-B17, N-{[2-(oxan-4-yloxy)pyridin-4-yl]methyl}prop-2-enamide], the viability at 48 h, 25 µM was 69.9%.
Work on `C=CC(=O)N(CC)CC(=O)N1CCn2c(nc(C)c2C)C1` [2-B18, N-(2-{2,3-dimethyl-5H,6H,7H,8H-imidazo[1,2-a]pyrazin-7-yl}-2-oxoethyl)-N-ethylprop-2-enamide] yielded a viability at 48 h, 25 µM of 94.8%.
For `C=CC(=O)N(C)Cc1cc2sccc2n1C` [2-B19, N-methyl-N-({4-methyl-4H-thieno[3,2-b]pyrrol-5-yl}methyl)prop-2-enamide], the viability at 48 h, 25 µM was 75.1%.
`C=CC(=O)NCc1ccc(C(=O)N2CCCCC(SC)C2)cc1` (stereo not drawn) [2-B20, N-({4-[3-(methylsulfanyl)azepane-1-carbonyl]phenyl}methyl)prop-2-enamide] gave a viability at 48 h, 25 µM of 57.3%.
For `C=CC(=O)NC(Cn1ccccc1=O)c1ccccc1` (stereo not drawn) [2-B21, N-[2-(2-oxo-1,2-dihydropyridin-1-yl)-1-phenylethyl]prop-2-enamide], the viability at 48 h, 25 µM was 72.3%.
Work on `C=CC(=O)N(C)CC(=O)N1CCC(C)(c2nc(C)no2)CC1` [2-B22, N-methyl-N-{2-[4-methyl-4-(3-methyl-1,2,4-oxadiazol-5-yl)piperidin-1-yl]-2-oxoethyl}prop-2-enamide] yielded a viability at 48 h, 25 µM of 57.9%.
Compound `C=CC(=O)N1CCCC(n2cncn2)C1` (stereo not drawn) [2-C03, 1-[3-(1H-1,2,4-triazol-1-yl)piperidin-1-yl]prop-2-en-1-one] has a viability at 48 h, 25 µM of 90.2%.
Work on `C=CC(=O)NCCC(=O)N1CCc2ncncc2C1` [2-C04, N-(3-oxo-3-{5H,6H,7H,8H-pyrido[4,3-d]pyrimidin-6-yl}propyl)prop-2-enamide] yielded a viability at 48 h, 25 µM of 93.3%.
In the case of `C=CC(=O)NCCN1C(=O)SC(=Cc2ccc(Cl)cc2)C1=O` [2-C05, N-(2-{5-[(4-chlorophenyl)methylidene]-2,4-dioxo-1,3-thiazolidin-3-yl}ethyl)prop-2-enamide], the viability at 48 h, 25 µM is reported as 87.2%.
With `C=CC(=O)N1CCOC2(CCS(=O)(=O)C2)C1` (stereo not drawn) [2-C06, 9-(prop-2-enoyl)-6-oxa-2lambda6-thia-9-azaspiro[4.5]decane-2,2-dione] the viability at 48 h, 25 µM was 101%.
Work on `C=CC(=O)N(Cc1cc(Cl)ccc1OC)C1CCCOCC1` (stereo not drawn) [2-C07, N-[(5-chloro-2-methoxyphenyl)methyl]-N-(oxepan-4-yl)prop-2-enamide] yielded a viability at 48 h, 25 µM of 95.3%.
With `C=CC(=O)Nc1ccc(S(C)(=O)=O)cc1OCC` [2-C08, N-(2-ethoxy-4-methanesulfonylphenyl)prop-2-enamide] the viability at 48 h, 25 µM was 0.998%.
Work on `C=CC(=O)NCc1csc(C(C)(C)C)n1` [2-C09, N-[(2-tert-butyl-1,3-thiazol-4-yl)methyl]prop-2-enamide] yielded a viability at 48 h, 25 µM of 86.1%.
With `C=CC(=O)N1CCOCC2(CCOCC2)C1` [2-C10, 1-{3,8-dioxa-11-azaspiro[5.6]dodecan-11-yl}prop-2-en-1-one] the viability at 48 h, 25 µM was 85.4%.
`C=CC(=O)NC(Cn1cnc2ccccc21)c1ccc(F)cc1` (stereo not drawn) [2-C11, N-[2-(1H-1,3-benzodiazol-1-yl)-1-(4-fluorophenyl)ethyl]prop-2-enamide] showed a viability at 48 h, 25 µM of 90.5%.
Compound `C=CC(=O)NCCC(=O)N1CCCC1c1cc(C)on1` (stereo not drawn) [2-C12, N-{3-[2-(5-methyl-1,2-oxazol-3-yl)pyrrolidin-1-yl]-3-oxopropyl}prop-2-enamide] has a viability at 48 h, 25 µM of 81.3%.
For `C=CC(=O)N(Cc1cnn(C(C)C)c1)c1ccc2nc(C)oc2c1` [2-C13, N-(2-methyl-1,3-benzoxazol-6-yl)-N-{[1-(propan-2-yl)-1H-pyrazol-4-yl]methyl}prop-2-enamide], the viability at 48 h, 25 µM was 185%.
Work on `C=CC(=O)NC(c1noc(O)n1)C(C)(C)C` (stereo not drawn) [2-C14, N-[1-(5-hydroxy-1,2,4-oxadiazol-3-yl)-2,2-dimethylpropyl]prop-2-enamide] yielded a viability at 48 h, 25 µM of 96.4%.
For `C=CC(=O)Nc1cc(C)nn1-c1ccccc1F` [2-C15, N-[1-(2-fluorophenyl)-3-methyl-1H-pyrazol-5-yl]prop-2-enamide], the viability at 48 h, 25 µM was 180%.
`C=CC(=O)N1CCC(O)(C(F)(F)C(N)=O)C1` (stereo not drawn) [2-C16, 2,2-difluoro-2-[3-hydroxy-1-(prop-2-enoyl)pyrrolidin-3-yl]acetamide] gave a viability at 48 h, 25 µM of 98.2%.
In the case of `C=CC(=O)N1CCC(Cn2nc(C)cc2C)CC1` [2-C17, 1-{4-[(3,5-dimethyl-1H-pyrazol-1-yl)methyl]piperidin-1-yl}prop-2-en-1-one], the viability at 48 h, 25 µM is reported as 182%.
`C=CC(=O)NCc1cc(-c2ccccc2OC)no1` [2-C18, N-{[3-(2-methoxyphenyl)-1,2-oxazol-5-yl]methyl}prop-2-enamide] showed a viability at 48 h, 25 µM of 72.8%.
Compound `C=CC(=O)N1CCC(Cc2ccnn2C)CC1` [2-C19, 1-{4-[(1-methyl-1H-pyrazol-5-yl)methyl]piperidin-1-yl}prop-2-en-1-one] has a viability at 48 h, 25 µM of 74.8%.
Work on `C=CC(=O)Nc1ccc(C(=O)N2CCCCC2c2noc(C)n2)cc1` (stereo not drawn) [2-C20, N-{4-[2-(5-methyl-1,2,4-oxadiazol-3-yl)piperidine-1-carbonyl]phenyl}prop-2-enamide] yielded a viability at 48 h, 25 µM of 77.3%.
In the case of `C=CC(=O)N1CCCC1c1nc(N(C)C)no1` (stereo not drawn) [2-C21, 1-{2-[3-(dimethylamino)-1,2,4-oxadiazol-5-yl]pyrrolidin-1-yl}prop-2-en-1-one], the viability at 48 h, 25 µM is reported as 191%.
With `C=CC(=O)Nc1cc(C(=O)CC)ccc1F` [2-C22, N-(2-fluoro-5-propanoylphenyl)prop-2-enamide] the viability at 48 h, 25 µM was 84.8%.
`C=CC(=O)NCC(C)Cn1ccc(C)n1` (stereo not drawn) [2-D03, N-[2-methyl-3-(3-methyl-1H-pyrazol-1-yl)propyl]prop-2-enamide] showed a viability at 48 h, 25 µM of 99.9%.
`C=CC(=O)N1CCC(C(=O)NCCc2c(C)n[nH]c2C)CC1` [2-D04, N-[2-(3,5-dimethyl-1H-pyrazol-4-yl)ethyl]-1-(prop-2-enoyl)piperidine-4-carboxamide] gave a viability at 48 h, 25 µM of 88.7%.
With `C=CC(=O)NCCc1nc(C)cs1` [2-D05, N-[2-(4-methyl-1,3-thiazol-2-yl)ethyl]prop-2-enamide] the viability at 48 h, 25 µM was 70.3%.
With `C=CC(=O)N1CCC(C(=O)N(C)Cc2ccc([S+](C)[O-])cc2)CC1` (stereo not drawn) [2-D06, N-[(4-methanesulfinylphenyl)methyl]-N-methyl-1-(prop-2-enoyl)piperidine-4-carboxamide] the viability at 48 h, 25 µM was 76.4%.
`C=CC(=O)NC1(c2nccc(C(F)(F)F)n2)CC1` [2-D07, N-{1-[4-(trifluoromethyl)pyrimidin-2-yl]cyclopropyl}prop-2-enamide] showed a viability at 48 h, 25 µM of 74.9%.
Work on `C=CC(=O)N1CCC(C(=O)Nc2ccc(N(C)C(C)=O)cc2)CC1` [2-D08, N-[4-(N-methylacetamido)phenyl]-1-(prop-2-enoyl)piperidine-4-carboxamide] yielded a viability at 48 h, 25 µM of 81.5%.
In the case of `C=CC(=O)N(C)Cc1cncn1C` [2-D09, N-methyl-N-[(1-methyl-1H-imidazol-5-yl)methyl]prop-2-enamide], the viability at 48 h, 25 µM is reported as 61.2%.

— article PMC11995724, “Antibiotic target discovery by integrated phenotypic and activity-based profiling of electrophilic fragments” (Cell chemical biology, 2025)
